Test results from US4619925A, “3-Propenyl cephalosporin derivatives” (priority 1985, dated 1986).

Tests used:
E. coli Juhl = assay: Protective dose for mice infected with lethal inoculum; type: in vivo; conditions: 50% survival after five days
Description: (§1) The data in Table 2 are results of protective doses (PD50) for mice infected with a lethal inoculum of bacteria. Two different bacteria were employed in the studies, one a Gram-positive organism (S. aureus Smith) and the other a Gram-negative organism (E. coli Juhl). The PD50 is that dose which, when administered to a group of injected mice, results in 50% survival after five days. Normally untreated infected mice die within three days following injection of the lethal inoculum.

S. aureus Smith = assay: as above; type: in vivo; conditions: 50% survival after five days
Description: as §1

C/C=C\C1=C(C(=O)O)N2C(=O)C(NC(=O)[C@H](N)c3cccc(O)c3)[C@H]2SC1 (stereo partly shown) [BMY-28272, 7-[(D)-2-amino-2-(3-hydroxyphenyl)acetamido]-3-[(Z)-1-propenyl]-3-cephem-4-carboxylic acid]
PD50 (protective dose) (E. coli Juhl; im): 1.9 | PD50 (protective dose) (E. coli Juhl; po): 2.6 | PD50 (protective dose) (S. aureus Smith; im): 0.29 | PD50 (protective dose) (S. aureus Smith; po): 0.17
